Test results as given in patent publication US11149019B2, “Phenylpyridine derivative and pharmaceutical composition comprising the same” (Daewoong Pharmaceutical Co., Ltd., priority 2017, dated 2021).

Assays:
[1] = target: T1, ITK (Homo sapiens, UniProt Q08881); experiment: ADP-Glo + ITK Kinase enzyme system kit, inhibitory activity against ITK; assay type: biochemical; conditions: ITK enzyme 0.4 ng/ul, ATP final concentration of 25 ul, 30° C. for 1 hour, luminescence, duplicate
T1 construct: purchased Promega Corporation
T1 sequence (Q08881 1-620): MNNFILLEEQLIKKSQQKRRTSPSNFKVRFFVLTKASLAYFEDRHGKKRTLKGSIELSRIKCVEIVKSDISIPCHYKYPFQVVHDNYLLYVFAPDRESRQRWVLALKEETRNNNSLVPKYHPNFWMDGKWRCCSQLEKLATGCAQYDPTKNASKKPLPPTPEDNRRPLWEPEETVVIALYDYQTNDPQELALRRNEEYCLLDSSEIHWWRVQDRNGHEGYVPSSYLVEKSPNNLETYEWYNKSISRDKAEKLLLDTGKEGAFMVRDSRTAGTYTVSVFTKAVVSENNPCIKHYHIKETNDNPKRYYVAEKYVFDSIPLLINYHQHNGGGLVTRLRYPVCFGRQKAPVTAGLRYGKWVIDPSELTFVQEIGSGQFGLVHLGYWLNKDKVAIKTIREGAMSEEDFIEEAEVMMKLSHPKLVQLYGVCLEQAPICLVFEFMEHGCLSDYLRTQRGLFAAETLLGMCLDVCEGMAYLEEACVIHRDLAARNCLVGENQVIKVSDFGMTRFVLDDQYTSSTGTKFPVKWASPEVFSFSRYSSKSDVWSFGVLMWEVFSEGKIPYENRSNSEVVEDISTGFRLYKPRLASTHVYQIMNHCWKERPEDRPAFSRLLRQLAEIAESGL
Description: (§1) Inhibitory activities against BTK and ITK were measured for the compounds prepared in the above Examples as follows.
The inhibitory activity against ITK was evaluated using ‘ADP-Glo™+ITK Kinase enzyme system’ kit (Promega Corporation). In a white 96-well plate, 10 ul of ITK enzyme prepared so as to have a final concentration of 0.4 ng/ul was mixed with 5 ul of compounds having a final concentration of 1 uM in the case of evaluating a single concentration of compound and a concentration of 1000, 300, 100, 30, 10, 3, 1, 0.3, 0.1 and 0.03 nM in the case of IC50 evaluation, and then reacted at room temperature for 15 minutes. To the plate on which reactions were completed, 5 ul of substrate and 5 ul of ATP prepared so as to have a final concentration of […] added and then allowed to react at 30° C. for 1 hour. All wells of the plate were treated with 25 ul of ADP-Glo™ reagent and then allowed to react at 30° C. for 40 minutes. After that, all wells were treated with 50 ul of kinase detection buffer, and then allowed to react at 30° C. for 30 minutes under light shielding conditions. For the plate on which all reactions were completed, luminescence was measured and the results were calculated. Evaluation was carried out in duplicate, and negative control and positive control were calculated depending on whether or not the enzyme was added without treatment of the compound. The IC50 was calculated based on the calculated values.

[2] = target: T2, BTK (Homo sapiens, UniProt Q06187); experiment: ADP-Glo + BTK Kinase enzyme system kit, inhibitory activity against BTK; assay type: biochemical; conditions: BTK enzyme 1 ng/ul, ATP 10 μM, 30° C. for 1 hour, luminescence, duplicate
T2 construct: purchased Promega Corporation
T2 sequence (Q06187 whole entry): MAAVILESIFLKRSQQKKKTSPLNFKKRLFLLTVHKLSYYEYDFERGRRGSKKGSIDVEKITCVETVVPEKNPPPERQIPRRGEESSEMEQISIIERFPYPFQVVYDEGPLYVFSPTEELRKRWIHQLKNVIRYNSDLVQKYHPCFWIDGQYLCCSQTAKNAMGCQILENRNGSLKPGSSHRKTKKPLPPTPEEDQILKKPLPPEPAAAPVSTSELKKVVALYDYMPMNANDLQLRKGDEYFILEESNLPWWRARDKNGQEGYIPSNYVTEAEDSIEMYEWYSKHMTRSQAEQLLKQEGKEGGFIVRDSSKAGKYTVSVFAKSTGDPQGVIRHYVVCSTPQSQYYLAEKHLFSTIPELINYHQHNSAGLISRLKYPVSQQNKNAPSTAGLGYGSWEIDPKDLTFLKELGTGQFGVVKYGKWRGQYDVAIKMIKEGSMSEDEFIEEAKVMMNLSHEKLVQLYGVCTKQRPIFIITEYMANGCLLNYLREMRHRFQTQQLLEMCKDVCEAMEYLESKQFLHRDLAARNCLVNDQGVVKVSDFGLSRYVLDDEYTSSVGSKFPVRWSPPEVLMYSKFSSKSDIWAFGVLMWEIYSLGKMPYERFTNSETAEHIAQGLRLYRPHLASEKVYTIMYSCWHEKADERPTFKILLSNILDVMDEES
Description: as §1
The inhibitory activities against BTK were evaluated using ‘ADP-Glo™+BTK Kinase enzyme system’ kit (Promega Corporation). In a white 96-well plate, 10 ul of BTK enzyme prepared so as to have a final concentration of 1 ng/ul was mixed with 5 μl of compounds having a final concentration of […] the case of evaluating a single concentration of compound and a concentration of 1000, 300, 100, 30, 10, 3, 1, 0.3, 0.1 and 0.03 nM in the case of IC50 evaluation, and then reacted at room temperature for 15 minutes. 5 ul of substrate and 5 ul of ATP prepared so as to have a final concentration of 10 μM were added to the plate on which reactions were completed, and then allowed to react at 30° C. for 1 hour. All wells of the plate were treated with 25 ul of ADP-Glo™ reagent and allowed to react at 30° C. for 40 minutes. After that, all wells were treated with 50 ul of kinase detection buffer, and then reacted at 30° C. for 30 minutes under light shielding conditions. For the plate on which all reactions were completed, luminescence was measured and the results were calculated. Evaluation was carried out in duplicate, and negative control and positive control were calculated depending on whether or not the enzyme was added without treatment of the compound. The IC50 was calculated based on the calculated values.

**Q.** For `C=CC(=O)Nc1ccc(-c2cc(Cc3ccccc3)cc(Nc3cc(C)[nH]n3)n2)cc1` [Compound 1, N-(4-(4-benzyl-6-(5-methyl-1H-pyrazol-3-ylamino)pyridin-2-yl)phenyl)acrylamide], which IC50 [1] is on record?
**A.** 289 nM

**Q.** What about the IC50 [2] of the same compound?
**A.** > 1000 nM

**Q.** How did the IC50 [1] turn out when `C=CC(=O)Nc1cccc(-c2cc(Cc3ccccc3)cc(Nc3cc(C)[nH]n3)n2)c1` [Compound 2, N-(3-(4-benzyl-6-(5-methyl-1H-pyrazol-3-ylamino)pyridin-2-yl)phenyl)acrylamide] was run?
**A.** 88.2 nM

**Q.** What about the IC50 [2] of the same compound?
**A.** 24.1 nM

**Q.** With `C#CC(=O)Nc1ccc(-c2cc(Cc3ccccc3)cc(Nc3cc(C)[nH]n3)n2)cc1` [Compound 3, N-(4-(4-benzyl-6-((5-methyl-1H-pyrazol-3-yl)amino)pyridin-2-yl)phenyl)propiolamide] as the compound, how does the IC50 [1] read?
**A.** 23.5 nM

**Q.** And the IC50 [2]?
**A.** 45.9 nM

**Q.** Which results are given for `C=CC(=O)Nc1cccc(-c2cc(Cc3ccccc3)cc(Nc3cc(C4CCCC4)[nH]n3)n2)c1` [Compound 4, N-(3-(4-benzyl-6-(5-cyclopentyl-1H-pyrazol-3-ylamino)pyridin-2-yl)phenyl)acrylamide]?
**A.** IC50 [1]: 91.4 nM; IC50 [2]: 634 nM

**Q.** With `C=CC(=O)Nc1cccc(-c2cc(Cc3ccccc3)cc(Nc3cc(-c4ccccc4)[nH]n3)n2)c1` [Compound 5, N-(3-(4-benzyl-6-((5-phenyl-1H-pyrazol-3-yl)amino)pyridin-2-yl)phenyl)acrylamide] as the compound, how does the IC50 [1] read?
**A.** 317 nM

**Q.** And the IC50 [2]?
**A.** 777 nM

**Q.** Which IC50 [1] does the source give for `C#CC(=O)Nc1cccc(-c2cc(Cc3ccccc3)cc(Nc3cc(C)[nH]n3)n2)c1` [Compound 6, N-(3-(4-benzyl-6-((5-methyl-1H-pyrazol-3-yl)amino)pyridin-2-yl)phenyl)propiolamide] here?
**A.** > 500 nM

**Q.** What about the IC50 [2] of the same compound?
**A.** > 1000 nM

**Q.** For `C=CC(=O)Nc1cccc(-c2cc(Cc3ccccc3)cc(Nc3cc(-c4ccc(Oc5ccccc5)cc4)[nH]n3)n2)c1` [Compound 7, N-(3-(4-benzyl-6-((5-(4-phenoxyphenyl)-1H-pyrazol-3-yl)amino)pyridin-2-yl)phenyl)acrylamide], which IC50 [1] is on record?
**A.** > 500 nM

**Q.** What about the IC50 [2] of the same compound?
**A.** 123 nM

**Q.** `C=CC(=O)Nc1cccc(-c2cc(Cc3ccccc3)cc(Nc3cc(Cc4ccc(C)cc4)[nH]n3)n2)c1` [Compound 8] was tested. Which IC50 [1] did it give?
**A.** 572 nM

**Q.** What about the IC50 [2] of the same compound?
**A.** 308 nM

**Q.** Which IC50 [1] does the source give for `C=CC(=O)Nc1cccc(-c2cc(Cc3ccccc3)cc(Nc3cc(C(C)c4ccc(C)cc4)[nH]n3)n2)c1` (stereo not shown) [Compound 9] here?
**A.** > 1000 nM

**Q.** And the IC50 [2]?
**A.** > 1000 nM

**Q.** For `C=CC(=O)Nc1cccc(-c2cc(Cc3ccccc3)cc(Nc3cc(CCc4ccccc4)[nH]n3)n2)c1` [Compound 10, N-(3-(4-benzyl-6-((5-phenethyl-1H-pyrazol-3-yl)amino)pyridin-2-yl)phenyl)acrylamide], which IC50 [1] is on record?
**A.** 502 nM

**Q.** And the IC50 [2]?
**A.** 65.1 nM

**Q.** How did the IC50 [1] turn out when `C=CC(=O)Nc1cccc(-c2cc(Cc3ccccc3)cc(Nc3cc[nH]n3)n2)c1` [Compound 11] was run?
**A.** 134 nM

**Q.** And the IC50 [2]?
**A.** 17.5 nM

**Q.** `C=CC(=O)Nc1cccc(-c2cccc(Nc3cc(C)[nH]n3)n2)c1` [Compound 12] was tested. Which IC50 [1] did it give?
**A.** 995 nM

**Q.** What about the IC50 [2] of the same compound?
**A.** 7.8 nM

**Q.** Which IC50 [1] does the source give for `C=CC(=O)Nc1cccc(-c2cccc(Nc3cc(C4CCCC4)[nH]n3)n2)c1` [Compound 13, N-(3-(6-((5-cyclopentyl-1H-pyrazol-3-yl)amino)pyridin-2-yl)phenyl)acrylamide] here?
**A.** 266 nM

**Q.** And the IC50 [2]?
**A.** 138 nM

**Q.** What does the source list for `C=CC(=O)Nc1cccc(-c2cccc(Nc3cc(-c4ccccc4)[nH]n3)n2)c1` [Compound 14, N-(3-(6-(5-phenyl-1H-pyrazol-3-ylamino)pyridin-2-yl)phenyl)acrylamide]?
**A.** IC50 [1]: 399 nM; IC50 [2]: 350 nM

**Q.** Which IC50 [1] does the source give for `C=CC(=O)Nc1cccc(-c2cccc(Nc3cc[nH]n3)n2)c1` [Compound 15, N-(3-(6-(1H-pyrazol-3-ylamino)pyridin-2-yl)phenyl)acrylamide] here?
**A.** > 500 nM

**Q.** And the IC50 [2]?
**A.** 18 nM

**Q.** `C=CC(=O)Nc1cccc(-c2cc(CN3CCN(C(=O)C(C)C)CC3)cc(Nc3ncc(C)s3)n2)c1` [Compound 62, N (3(4((4-isobutyrylpiperazin-1-yl)methyl)-6-(5-methylthiazol-2-ylamino)pyridin-2-yl)phenyl)acrylamide] was tested. Which IC50 [1] did it give?
**A.** 8.1 nM
